# Values of other authors in patent US20170101678A1, “METHOD FOR SCREENING RISK OF DRUG-INDUCED TOXICITY” (RESEARCH CENTER FOR BIOTECHNOLOGY AND MEDICINE POLICY, priority 2014, published 2017).
# Where two headings read alike, the source gives them in different places.
# Conditions: patients treated with INH
smiles,measurement,setting,value
"NNC(=O)c1ccncc1 [INH, Isoniazid]",patients developing hepatitis or increased liver readings,CYP2E1 1A/1A genotype,39%
same,patients developing hepatitis or increased liver readings,CYP2E1 1A/1B genotype,15%
